{
  "source": "patent US20250122225A1",
  "about": "“MASP-2 INHIBITORS AND METHODS OF USE” (Omeros Corporation, priority 2023, published 2025)",
  "key": {"human α-thrombin": {"target": "T1, human α-thrombin (Homo sapiens, UniProt P00734)", "T1 construct": "enzyme (human α-thrombin (BioPharm® Lab.)) in assay buffer; purchased BioPharm® Lab", "experiment": "Enzymatic assay for thrombin (fluorogenic peptide substrate Boc-VPR-AMC)", "assay_type": "biochemical", "summary_of_the_method": "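Assay conditions kept the reaction linear in time, enzyme and substrate, so IC50 approximated Ki apart from tight- or slow-binding cases. Boc-VPR-AMC cleavage by human α-thrombin proceeded 20 min at room temperature in Hepes pH 7.4/NaCl/Tween 20 buffer, then was acid-quenched and read by fluorescence.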"}, "MASP-2 (CCP1-CCP2-SP)": {"target": "T2, MASP-2 (CCP1-CCP2-SP) (Homo sapiens, UniProt O00187)", "T2 construct": "15 μL of Enzyme MASP-2 (CCP1-CCP2-SP) in Assay Buffer", "T2 sequence (O00187 445-686 limits assumed)": "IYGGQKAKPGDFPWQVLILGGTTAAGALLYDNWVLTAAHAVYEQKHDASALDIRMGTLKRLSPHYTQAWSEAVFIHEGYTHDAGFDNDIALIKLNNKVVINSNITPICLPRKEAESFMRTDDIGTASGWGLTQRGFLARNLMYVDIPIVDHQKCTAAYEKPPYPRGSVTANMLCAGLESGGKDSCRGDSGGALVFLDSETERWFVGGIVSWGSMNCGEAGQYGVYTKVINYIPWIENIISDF", "T2 sequence (O00187 287-444 partner limits assumed)": "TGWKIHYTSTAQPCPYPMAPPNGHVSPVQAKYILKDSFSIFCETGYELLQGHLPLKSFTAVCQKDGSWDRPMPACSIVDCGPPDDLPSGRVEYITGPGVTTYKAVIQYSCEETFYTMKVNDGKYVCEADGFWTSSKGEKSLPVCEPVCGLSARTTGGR", "experiment": "Enzymatic assay for MASP-2 inhibitory activity (fluorogenic substrate)", "assay_type": "biochemical", "summary_of_the_method": "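Fluorescence was normalized between no-enzyme and DMSO-only controls to derive % activity, with IC50 taken as equivalent to Ki except for tight-binding inhibitors. Reactions ran 20 min at room temperature in HEPES pH 7.4/NaCl/Tween 20 buffer, using the C2-derived fluorogenic substrate, before acetic acid stop.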"}},
  "note": "Counter-ions that a name gives are not always drawn.",
  "data": [
    {"smiles": "CC1(C)C[C@@H](C(=O)NCc2cc3cnccc3[nH]2)n2c1c(Cl)nc(NCc1ccccc1)c2=O", "note": "[Compound 229, (S)-N-((1H-pyrrolo[3,2-c]pyridin-2-yl)methyl)-3-(benzylamino)-1-chloro-8,8-dimethyl-4-oxo-4,6,7,8-tetrahydropyrrolo[1,2-a]pyrazine-6-carboxamide trifluoroacetate]", "values": [
      {"measurement": "Ki", "setting": "human α-thrombin", "result": "2500 to 10000", "unit": "nM"},
      {"measurement": "Ki", "setting": "MASP-2 (CCP1-CCP2-SP)", "result": "< 500", "unit": "nM"}
    ]},
    {"smiles": "O=C(NCc1cc2cnccc2[nH]1)[C@@H]1CC2(CCCC2)c2c(Cl)nc(NCc3ccccc3)c(=O)n21", "note": "[Compound 231, (S)—N-((1H-pyrrolo[3,2-c]pyridin-2-yl)methyl)-3′-(benzylamino)-1′-chloro-4′-oxo-6′,7′-dihydro-4′H-spiro[cyclopentane-1,8′-pyrrolo[1,2-a]pyrazine]-6′-carboxamide trifluoroacetate]", "values": [
      {"measurement": "Ki", "setting": "human α-thrombin", "result": "10000 to 25000", "unit": "nM"},
      {"measurement": "Ki", "setting": "MASP-2 (CCP1-CCP2-SP)", "result": "< 500", "unit": "nM"}
    ]},
    {"smiles": "Nc1nc(Cl)c2n(c1=O)[C@H](C(=O)NCc1cc3cnccc3[nH]1)CC21CCCC1", "note": "[Compound 232, (S)—N-((1H-pyrrolo[3,2-c]pyridin-2-yl)methyl)-3′-amino-1′-chloro-4′-oxo-6′,7′-dihydro-4′H-spiro[cyclopentane-1,8′-pyrrolo[1,2-a]pyrazine]-6′-carboxamide trifluoroacetate]", "values": [
      {"measurement": "Ki", "setting": "human α-thrombin", "result": "> 25000", "unit": "nM"},
      {"measurement": "Ki", "setting": "MASP-2 (CCP1-CCP2-SP)", "result": "500 to 2500", "unit": "nM"}
    ]},
    {"smiles": "O=C(NCc1cc2cnccc2[nH]1)[C@@H]1CC2(CC=CC2)c2c(Cl)nc(NCc3ccccc3)c(=O)n21", "note": "[Compound 233, (S)—N-((1H-pyrrolo[3,2-c]pyridin-2-yl)methyl)-3′-(benzylamino)-1′-chloro-4′-oxo-6′,7′-dihydro-4′H-spiro[cyclopentane-1,8′-pyrrolo[1,2-a]pyrazin]-3-ene-6′-carboxamide trifluoroacetate]", "values": [
      {"measurement": "Ki", "setting": "human α-thrombin", "result": "> 25000", "unit": "nM"},
      {"measurement": "Ki", "setting": "MASP-2 (CCP1-CCP2-SP)", "result": "< 500", "unit": "nM"}
    ]},
    {"smiles": "CC[C@@H](Nc1ncc2n(c1=O)[C@H](C(=O)NCc1cc3c(s1)CNC3)CC2)c1ccccc1", "note": "[Compound 234]", "values": [
      {"measurement": "Ki", "setting": "human α-thrombin", "result": "< 500", "unit": "nM"},
      {"measurement": "Ki", "setting": "MASP-2 (CCP1-CCP2-SP)", "result": "< 500", "unit": "nM"}
    ]},
    {"smiles": "O=C(NCc1cc2c(s1)CNC2)[C@@H]1CCc2cnc(NC3CCc4ccccc43)c(=O)n21", "note": "(stereo partly drawn) [Compound 235]", "values": [
      {"measurement": "Ki", "setting": "human α-thrombin", "result": "< 500", "unit": "nM"},
      {"measurement": "Ki", "setting": "MASP-2 (CCP1-CCP2-SP)", "result": "< 500", "unit": "nM"}
    ]},
    {"smiles": "Nc1ccc2c(n1)CC[C@H]2NC(=O)[C@@H]1CCc2cnc(NCc3cccc(-c4ccccc4)c3)c(=O)n21", "note": "[Compound 236]", "values": [
      {"measurement": "Ki", "setting": "human α-thrombin", "result": "500 to 2500", "unit": "nM"},
      {"measurement": "Ki", "setting": "MASP-2 (CCP1-CCP2-SP)", "result": "< 500", "unit": "nM"}
    ]},
    {"smiles": "Cc1ccc(C)c(CNc2ncc3n(c2=O)[C@H](C(=O)N[C@H](C)c2ccc(N)nc2C)CC3)c1", "note": "[Compound 237]", "values": [
      {"measurement": "Ki", "setting": "human α-thrombin", "result": "500 to 2500", "unit": "nM"},
      {"measurement": "Ki", "setting": "MASP-2 (CCP1-CCP2-SP)", "result": "< 500", "unit": "nM"}
    ]},
    {"smiles": "Cc1cc(C)cc(CNc2ncc3n(c2=O)[C@H](C(=O)N[C@H](C)c2ccc(N)nc2C)CC3)c1", "note": "[Compound 238]", "values": [
      {"measurement": "Ki", "setting": "human α-thrombin", "result": "500 to 2500", "unit": "nM"},
      {"measurement": "Ki", "setting": "MASP-2 (CCP1-CCP2-SP)", "result": "< 500", "unit": "nM"}
    ]},
    {"smiles": "O=C(NCc1cc2cnccc2[nH]1)[C@@H]1CCc2c(Cl)nc(NCCc3cccnc3)c(=O)n21", "note": "[Compound 241]", "values": [
      {"measurement": "Ki", "setting": "human α-thrombin", "result": "< 500", "unit": "nM"},
      {"measurement": "Ki", "setting": "MASP-2 (CCP1-CCP2-SP)", "result": "< 500", "unit": "nM"}
    ]},
    {"smiles": "O=C(NCc1cc2c(s1)CNC2)[C@@H]1CCc2c(Cl)nc(NCCc3ccccc3)c(=O)n21", "note": "[Compound 242]", "values": [
      {"measurement": "Ki", "setting": "human α-thrombin", "result": "< 500", "unit": "nM"},
      {"measurement": "Ki", "setting": "MASP-2 (CCP1-CCP2-SP)", "result": "< 500", "unit": "nM"}
    ]},
    {"smiles": "N=C(N)c1ccc(CNC(=O)[C@@H]2CCc3c(Cl)nc(NCc4ccccc4)c(=O)n32)cc1", "note": "[Compound 243]", "values": [
      {"measurement": "Ki", "setting": "human α-thrombin", "result": "< 500", "unit": "nM"},
      {"measurement": "Ki", "setting": "MASP-2 (CCP1-CCP2-SP)", "result": "< 500", "unit": "nM"}
    ]},
    {"smiles": "COC(CNc1nc(Cl)c2n(c1=O)[C@H](C(=O)NCc1cc3cnccc3[nH]1)CC2)c1ccccc1", "note": "(stereo partly drawn) [Compound 244]", "values": [
      {"measurement": "Ki", "setting": "human α-thrombin", "result": "500 to 2500", "unit": "nM"},
      {"measurement": "Ki", "setting": "MASP-2 (CCP1-CCP2-SP)", "result": "< 500", "unit": "nM"}
    ]},
    {"smiles": "O=C(NCc1cc2cnccc2[nH]1)[C@@H]1CCc2c(Cl)nc(NCC3(c4ccccc4)CC3)c(=O)n21", "note": "[Compound 245]", "values": [
      {"measurement": "Ki", "setting": "human α-thrombin", "result": "500 to 2500", "unit": "nM"},
      {"measurement": "Ki", "setting": "MASP-2 (CCP1-CCP2-SP)", "result": "< 500", "unit": "nM"}
    ]},
    {"smiles": "O=C(NCc1cc2cnccc2[nH]1)[C@@H]1CCc2c(-c3cn[nH]c3)nc(NCCc3ccccc3)c(=O)n21", "note": "[Compound 246]", "values": [
      {"measurement": "Ki", "setting": "human α-thrombin", "result": "> 25000", "unit": "nM"},
      {"measurement": "Ki", "setting": "MASP-2 (CCP1-CCP2-SP)", "result": "< 500", "unit": "nM"}
    ]},
    {"smiles": "O=C(NCc1cc2cnccc2[nH]1)[C@@H]1CCc2c(C3CC3)nc(NCCc3ccccc3)c(=O)n21", "note": "[Compound 247]", "values": [
      {"measurement": "Ki", "setting": "human α-thrombin", "result": "500 to 2500", "unit": "nM"},
      {"measurement": "Ki", "setting": "MASP-2 (CCP1-CCP2-SP)", "result": "< 500", "unit": "nM"}
    ]},
    {"smiles": "O=C(NCc1cc2cnccc2[nH]1)[C@@H]1CCc2cnc(NCCc3ccccc3)c(=O)n21", "note": "[Compound 248]", "values": [
      {"measurement": "Ki", "setting": "human α-thrombin", "result": "< 500", "unit": "nM"},
      {"measurement": "Ki", "setting": "MASP-2 (CCP1-CCP2-SP)", "result": "< 500", "unit": "nM"}
    ]},
    {"smiles": "O=C(NCc1cc2cnccc2[nH]1)[C@@H]1CCc2c(Cl)nc(NCCc3ccccc3)c(=O)n21", "note": "[Compound 249]", "values": [
      {"measurement": "Ki", "setting": "human α-thrombin", "result": "500 to 2500", "unit": "nM"},
      {"measurement": "Ki", "setting": "MASP-2 (CCP1-CCP2-SP)", "result": "< 500", "unit": "nM"}
    ]}
  ]
}
